Structures are written as SMILES. The source made the active and inactive calls. How the calls were made is not given here.

The values below come from PubChem BioAssay AID1259408 (Genetic Toxicology Data Bank (GENE-TOX), 2018).

The subject of the series is GENE-TOX genotoxicity assays, various organisms and cells. As to the kind of experiment: GENE-TOX mutagenicity studies. The note with it: for call: Assay Type: In vivo carcinogenicity studies.
Setting [1] is: Species/Cell Type: Drosophila melanogaster, Assay Type: Sex-linked recessive lethal gene mutation, Assay Code: SRLT, Evaluation Type: Evaluation A (Pre-1980).
Where [2] appears, read: Species/Cell Type: Nonhuman, Assay Code: CCG+, Evaluation Type: Evaluation A (Pre-1980).
The mark [3] stands for this setting: Species/Cell Type: Nonhuman, Assay Type: Sister-chromatid exchange (SCE) in vitro, Assay Code: SC2+D, Dose Response: With dose response, Evaluation Type: Evaluation B (Post-1980).
Where [4] appears, read: Species/Cell Type: Nonhuman, Assay Type: Sister-chromatid exchange (SCE) in vivo, Assay Code: SC3+D, Dose Response: With dose response, Evaluation Type: Evaluation B (Post-1980).
The mark [5] stands for this setting: Species/Cell Type: Salmonella typhimurium (one or more of the five standard strains: TA98, TA100, TA1535, TA1537, and TA1538), Assay Type: Histidine reverse gene mutation, Ames assay, Assay Code: SAL+*, Activation: With metabolic activation, Evaluation Type: Evaluation A (Pre-1980).
Where [6] appears, read: Species/Cell Type: Neurospora crassa, Assay Type: Aneuploidy, chromosome aberrations, Assay Code: NEN-, Evaluation Type: Evaluation A (Pre-1980).
Where [7] appears, read: Species/Cell Type: Human lymphocytes, Assay Type: Sister-chromatid exchange (SCE) in vitro, Assay Code: SCL+D, Dose Response: With dose response, Evaluation Type: Evaluation B (Post-1980).
Setting [8] is: Species/Cell Type: Human, Assay Type: Sister-chromatid exchange (SCE) in vitro, Assay Code: SC1+D, Dose Response: With dose response, Evaluation Type: Evaluation B (Post-1980).
Where [9] appears, read: Species/Cell Type: Vicia faba, Assay Type: Chromosome aberrations, Assay Code: VIC+, Evaluation Type: Evaluation A (Pre-1980).

As for `C=CC#N`, the mutagenic call by setting is: under setting [1], “no conclusion”; (Species/Cell Type: Escherichia coli WP2, Assay Type: Tryptophan reverse gene mutation, Assay Code: WP2+D, Dose Response: With dose response, Evaluation Type: Evaluation A (Pre-1980)) “active; positive”; (Species/Cell Type: Escherichia coli WP2 UVRA, Assay Type: Tryptophan reverse gene mutation, Assay Code: WPU+, Evaluation Type: Evaluation A (Pre-1980)) “active; positive”; (Species/Cell Type: Mammalian polychromatic erythrocytes, Assay Type: Micronucleus test, chromosome aberrations, Assay Code: MNT-, Evaluation Type: Evaluation B (Post-1980)) “inactive; negative”; under setting [3], “active; positive”; under setting [4], “active; positive”. The mutagenic call runs as follows: under setting [5], “active; positive”; (Species/Cell Type: Syrian hamster embryo (SA7/SHE) cells, Assay Type: Cell transformation, viral enhanced, Assay Code: CT7+, Evaluation Type: Evaluation A (Pre-1980)) “active; positive”; (Species/Cell Type: Syrian hamster embryo (SHE) cells, Assay Type: Cell transformation, focus assay, Assay Code: CTF+, Evaluation Type: Evaluation A (Pre-1980)) “active; positive”. Further, the call under setting [2] was “active; positive”.
In the case of `CC(C)Oc1cc(-n2nc(C(C)(C)C)oc2=O)c(Cl)cc1Cl`, the mutagenic call (Species/Cell Type: Saccharomyces cerevisiae, Assay Type: Mitotic recombination or gene conversion, Assay Code: YEC-, Evaluation Type: Evaluation A (Pre-1980)) was “inactive; negative”.
Turning to `C=CC(OC(C)=O)c1ccc(OC)c2ccccc12` (stereo unspecified), the mutagenic call (Species/Cell Type: Salmonella typhimurium (one or more of the five standard strains: TA98, TA100, TA1535, TA1537, and TA1538), Assay Type: Histidine reverse gene mutation, Ames assay, Assay Code: SAL+, Evaluation Type: Evaluation A (Pre-1980)) is “active; positive”.
With `Clc1cc(Cl)c(OCC#CI)cc1Cl`, under setting [6], the mutagenic call is “inactive; negative”.
`Cc1cc(N=Nc2ccc(S(=O)(=O)O)cc2)c(N)cc1N`: the mutagenic call under setting [5] is “active; positive”.
As for `CC1=C(O)C(=O)C(C2=C(O)C(=O)C(C)=C(O)C2=O)=C(O)C1=O`, the mutagenic call was “inactive; negative” (Species/Cell Type: Saccharomyces cerevisiae, Assay Type: Mitotic recombination or gene conversion, Assay Code: YEH-, Evaluation Type: Evaluation A (Pre-1980)); “no conclusion” (Species/Cell Type: Salmonella typhimurium (one or more of the five standard strains: TA98, TA100, TA1535, TA1537, and TA1538), Assay Type: Histidine reverse gene mutation, Ames assay, Assay Code: SALT, Evaluation Type: Evaluation A (Pre-1980)).
As to `CC[C@]1(O)C[C@@H]2CN(CCc3c([nH]c4ccccc34)[C@@](C(=O)OC)(c3cc4c(cc3OC)N(C)[C@H]3[C@@](O)(C(=O)OC)[C@H](OC(C)=O)[C@]5(CC)C=CCN6CC[C@]43[C@@H]65)C2)C1`, the mutagenic call runs as follows: (Species/Cell Type: Mammalian polychromatic erythrocytes, Assay Type: Micronucleus test, chromosome aberrations, Assay Code: MNT+, Evaluation Type: Evaluation A (Pre-1980)) “active; positive”; (Species/Cell Type: Mammalian polychromatic erythrocytes, Assay Type: Micronucleus test, chromosome aberrations, Assay Code: MNT+, Evaluation Type: Evaluation B (Post-1980)) “active; positive”; (Species/Cell Type: Mouse, Sex: Male, Assay Type: Sperm morphology, Assay Code: SPI+, Evaluation Type: Evaluation A (Pre-1980)) “active; positive”; under setting [6], “inactive; negative”.
For the compound `NC(=S)Nc1cccc2ccccc12`, the call (Species/Cell Type: Nonhuman, Assay Code: CCGT, Evaluation Type: Evaluation A (Pre-1980)) was “no conclusion”. Also, the mutagenic call (Species/Cell Type: Syrian hamster embryo (SHE) cells, Assay Type: Cell transformation, clonal assay, Assay Code: CTC+, Evaluation Type: Evaluation A (Pre-1980)) is “active; positive”.
As to `c1ccc2c(c1)ccc1[nH]c3ccc4ccccc4c3c12`, the call under setting [2] is “active; positive”.
With `OC(CCl)CCl`, the mutagenic call under setting [5] is “active; positive”.
For `O=[N+]([O-])[O-].O=[N+]([O-])[O-].O=[N+]([O-])[O-].[Rh+3]`, the mutagenic call (Species/Cell Type: Bacillus subtilis (H17 vs M45), Assay Type: Rec-assay, spot test, DNA effects (bacterial DNA repair), Assay Code: REW+, Evaluation Type: Evaluation A (Pre-1980)) is “active; positive”.
In the case of `ClC(Br)Br`, the mutagenic call under setting [7] was “active; positive”, the mutagenic call under setting [8] was “active; positive” and the mutagenic call under setting [4] is “active; positive”.
`c1ncc2[nH]cnc2n1`: the mutagenic call (Species/Cell Type: Escherichia coli polA (W3119 vs P3478), Assay Type: Rec-assay, DNA effects (bacterial DNA repair), Assay Code: RE1-, Evaluation Type: Evaluation A (Pre-1980)) is “inactive; negative”.
Take `CCO`: the mutagenic call is “inactive; negative” (Species/Cell Type: Arabidopsis species, Assay Type: Gene mutation, Assay Code: ARM-, Evaluation Type: Evaluation A (Pre-1980)); “inactive; negative” (Species/Cell Type: Aspergillus nidulans, Assay Type: Forward gene mutation, Assay Code: ASF-, Evaluation Type: Evaluation A (Pre-1980)); “inactive; negative” (Species/Cell Type: Fischer rat embryo (RLV/1706) cells, Assay Type: Cell transformation, viral enhanced, Assay Code: CTR-, Evaluation Type: Evaluation A (Pre-1980)); “active; positive” under setting [7]; “inactive; negative” (Species/Cell Type: Human lymphocytes, Assay Type: Sister-chromatid exchange (SCE) in vitro, Assay Code: SCL-, Evaluation Type: Evaluation A (Pre-1980)); “active; positive” under setting [8]. Besides, the mutagenic call runs as follows: (Species/Cell Type: Human, Assay Type: Sister-chromatid exchange (SCE) in vitro, Assay Code: SC1-, Evaluation Type: Evaluation A (Pre-1980)) “inactive; negative”; (Species/Cell Type: Mammalian polychromatic erythrocytes, Assay Type: Micronucleus test, chromosome aberrations, Assay Code: MNT-, Evaluation Type: Evaluation A (Pre-1980)) “inactive; negative”; (Species/Cell Type: Mouse, Sex: Male, Assay Type: Sperm morphology, Assay Code: SPI-, Evaluation Type: Evaluation A (Pre-1980)) “inactive; negative”; under setting [6], “inactive; negative”; (Species/Cell Type: Nonhuman, Assay Type: Chromosome aberrations in vitro, Assay Code: CY&-, Evaluation Type: Evaluation A (Pre-1980)) “inactive; negative”; under setting [3], “active; positive”. Further, the mutagenic call (Species/Cell Type: Nonhuman, Assay Type: Sister-chromatid exchange (SCE) in vitro, Assay Code: SC2-, Evaluation Type: Evaluation A (Pre-1980)) is “inactive; negative”; the mutagenic call (Species/Cell Type: Nonhuman, Assay Type: Sister-chromatid exchange (SCE) in vivo, Assay Code: SC3+, Evaluation Type: Evaluation B (Post-1980)) is “active; positive”; the mutagenic call (Species/Cell Type: Rodents, Sex: Male, Assay Type: Dominant lethal test, Assay Code: DLT+, Evaluation Type: Evaluation A (Pre-1980)) is “active; positive”; the mutagenic call (Species/Cell Type: Salmonella typhimurium (one or more of the five standard strains: TA98, TA100, TA1535, TA1537, and TA1538), Assay Type: Histidine reverse gene mutation, Ames assay, Assay Code: SAL-, Evaluation Type: Evaluation A (Pre-1980)) was “inactive; negative”; the mutagenic call (Species/Cell Type: Syrian hamster embryo (SHE) cells, Assay Type: Cell transformation, clonal assay, Assay Code: CTC-, Evaluation Type: Evaluation A (Pre-1980)) is “inactive; negative”; the mutagenic call (Species/Cell Type: Tradescantia species, Assay Type: Gene mutation, Assay Code: TRM+D, Dose Response: With dose response, Evaluation Type: Evaluation A (Pre-1980)) was “active; positive”. For the same compound, the mutagenic call under setting [9] was “active; positive”. The call (Species/Cell Type: Nonhuman, Assay Code: CCG-L, Evaluation Type: Evaluation A (Pre-1980)) is “inactive; negative”.
With `O=CNNc1nc(-c2ccco2)cs1`, the mutagenic call was “inactive; negative” (Species/Cell Type: Escherichia coli WP2, Assay Type: Tryptophan reverse gene mutation, Assay Code: WP2-, Evaluation Type: Evaluation A (Pre-1980)) and “inactive; negative” (Species/Cell Type: Escherichia coli WP2 UVRA, Assay Type: Tryptophan reverse gene mutation, Assay Code: WPU-, Evaluation Type: Evaluation A (Pre-1980)).
With `[Cl][Mo]([Cl])([Cl])([Cl])[Cl]`, the mutagenic call (Species/Cell Type: Bacillus subtilis (H17 vs M45), Assay Type: Rec-assay, spot test, DNA effects (bacterial DNA repair), Assay Code: REW-, Evaluation Type: Evaluation A (Pre-1980)) is “inactive; negative”.
Turning to `CCNc1nc(Cl)nc(NC(C)(C)C#N)n1`, the mutagenic call (Species/Cell Type: Drosophila melanogaster, Assay Type: Aneuploidy, partial sex chromosome loss, chromosome aberrations, Assay Code: DAPT, Evaluation Type: Evaluation A (Pre-1980)) is reported as “no conclusion”; the mutagenic call (Species/Cell Type: Drosophila melanogaster, Assay Type: Aneuploidy, sex chromosome gain, chromosome aberrations, Assay Code: DAGT, Evaluation Type: Evaluation A (Pre-1980)) was “no conclusion”; the mutagenic call (Species/Cell Type: Drosophila melanogaster, Assay Type: Aneuploidy, whole sex chromosome loss, chromosome aberrations, Assay Code: DAC-M, Evaluation Type: Evaluation A (Pre-1980)) was “inactive; negative”; the mutagenic call under setting [1] was “no conclusion”; the mutagenic call under setting [6] is “inactive; negative”; the mutagenic call (Species/Cell Type: Tradescantia species, Assay Type: Chromosome aberrations, Assay Code: TRC+, Evaluation Type: Evaluation A (Pre-1980)) is “active; positive”. For the same compound, the mutagenic call by setting is: under setting [9], “active; positive”; (Species/Cell Type: Zea mays (corn), Assay Type: Gene mutation, Assay Code: ZEM+, Evaluation Type: Evaluation A (Pre-1980)) “active; positive”.
Consider `CC(C)N(C(=O)SCC(Cl)=C(Cl)Cl)C(C)C`, for which the mutagenic call under setting [5] is “active; positive”.
